# Experimental data reported in patent US20230338386A1, “DPP-IV INHIBITOR COMBINED WITH A FURTHER ANTIDIABETIC AGENT, TABLETS COMPRISING SUCH FORMULATIONS, THEIR USE AND PROCESS FOR THEIR PREPARATION” (Boehringer Ingelheim International GmbH, priority 2008, published 2023).
# Experiment: Stability of FDC dosage forms (in words)
# Format: physicochemical
# Details: after 6 months storage at accelerated conditions; effect seems concentration dependent
structure (smiles),measurement,value
N=C(N)NCCC[C@H](N)C(=O)O [L-arginine],suppression of degradation of BI 1356 free base in FDC combinations with metformin HCl,able to suppress degradation
